Experimental findings from patent publication US6979675B2, “Treatment of cancer with 2-deoxyglucose” (Threshold Pharmaceuticals, Inc., priority 2003, dated 2005) are described below.

Molecules are shown by their SMILES.

The subject of data set [1] is MiaPaCa-2 pancreatic carcinoma. Put plainly: MTS growth inhibition assay, single agent studies. Conditions: Homo sapiens, MIA PaCa-2, 72 h; 3 days in culture. Type of data set: cell-based. On the procedure:
(§1) Human tumor cell lines MiaPaCa-2 pancreatic carcinoma (mutant ras, gemcitabine sensitive) and HT-29 colon carcinoma (polyposis type, mutant p53 and APC, chemosensitive) were purchased from the ATCC (Rockville, Md.). […] Cells grown to 70% confluency were trypsinized and resuspended into cell culture medium at a concentration of 10^5 cells/ml. On Day 0 of the experiment, a […] aliquot of tumor cells was plated into internal wells of a 96-well microtiter plate at an appropriate density (in the range of 2×10^3 to 10^4 cells/well). The cells were incubated for 24 hours to allow maximum adhesion prior to exposure with test agents. […] The starting concentration and the test range of 5-FU were determined empirically for each cell line. Treatment with 5-FU started on Day 1. There were 6 replicates for each dose determination. Both drugs were added once without the medium change. After 3 days in culture, the number of proliferating cells was measured by the MTS assay described below. The test was repeated twice to quantify growth inhibitory activity. […] IC50 values were generated from two separate experiments. […] The MTS reagent is a tetrazolium compound and an electron coupling reagent. The MTS tetrazolium compound is bioreduced by cells into a colored formazan product soluble in cell culture medium. The conversion is catalyzed by NADPH or NADH produced by dehydrogenase enzymes in metabolically active cells. The MTS assay is a colorimetic assay based upon the ability of viable cells to convert […] to formazan; the quantity of formazan product, as measured by the 490 nm absorbance, is directly proportional to the number of viable cells in culture. An automated procedure determines the IC50 value. Exponentially growing cells in […] of cell culture medium are plated on Day 0 in 96-well microtiter plates at a concentration of 10^4 cells/well. […] At the end of the designated time period, 100 microL of growth medium is removed. […] Absorbance is documented on a Dynex HD microplate reader at a wavelength of 490 nm. The data was calculated as percent growth inhibition, wherein 0% represents the mean value in wells to which only vehicle (cell culture medium) was added. The % Growth Inhibition was calculated as follows: % Growth Inhibition=(1−(ODtest/ODvehicle)×100, where ODtest is the optical density of the tested sample, and ODvehicle is the optical density of the vehicle in which each respective drug is dissolved. […] To determine the interaction, there must be a significant difference that exists between the combination absorbance values and both endpoint values. For example, if the values are statistically (p<0.05) above or below the absorbance values of either agent tested alone, then antagonism or synergy is described. […]

For a further data set, the system named is HT-29 colon carcinoma. As to the kind of experiment: MTS growth inhibition assay, single agent studies. Type of data set: cell-based. As to conditions: Homo sapiens, HT-29, 72 h; 3 days in culture. On the procedure:
as §1
A general note: Formazan colour is commonly taken as a measure of viable cells.

Data set [2] concerns MV522 human tumor carcinomas. Put plainly: Tumor growth delay study in mouse MV522 xenograft model (TH-PT-001). How it is done: Female nude mice (nu/nu) between 5 and 6 weeks of age and weighing approximately 20 g were obtained from Harlan, Inc. (Madison, Wis.). Animals were implanted subcutaneously by trocar with fragments of Mv522 human tumor carcinomas harvested from subcutaneously growing tumors in nude mice hosts. When the tumors were approximately 71 mg in size (11 days following inoculation), the animals were pair-matched into treatment and control groups. Each group contained 10 tumored mice. Each mouse was ear-tagged and followed individually throughout the experiment. Initial doses were given on Day 1 following pair-matching. […] Sterile water was administered orally bid×5 to end to serve as the negative control. Mice were weighed twice weekly, and tumor measurements were obtained using calipers twice weekly, starting on Day 1. These tumor measurements were converted to mg tumor weight by the standard formula (W^2×L)/2. Each mouse was sacrificed when its tumor weight reached 1000 mg. In this test, the average day of sacrifice was determined for all groups and the tumor growth delay (TGD) for each treatment group, compared to the control group, was calculated.
All of these studies are outlined in the following table.

A short description of data set [3]: MTD study of combined 2-DG/cisplatin treatment versus cisplatin alone (TH-PT-002). As to conditions: cisplatin 2, 3, or 4 mg/kg/dose i.p. qd Days 6–10 with or without 2-DG 2000 mg/kg/dose oral qd days 1–10. On the procedure:
The maximum tolerated dose determination for this study was conducted using female nude mice (nu/nu) between 5 and 6 weeks of age weighing approximately 20 g (Harlan, Inc., Madison, Wis.). Dosing began on Day 1. […] […] Individual mouse weights in grams were recorded twice weekly throughout the study. The average weight per group was calculated, and weight gain or loss was determined by comparing the current Day's average to the Day 1 average for that same group. The study was terminated on Day 21.

The next data set concerns MV522 cells. Put plainly: Sulforhodamine B (SRB) growth inhibition assay. The data set is classed as cell-based. As to conditions: Homo sapiens, 72 hours treatment. On the procedure: (§2) The human lung tumor cell lines were MV522 and NCI-H23, both of which were derived from tumors displaying histopathology of adenocarcinoma, one of the at least three types of NSCLC. The NCI-H23 tumor cell line is available from the ATCC (Rockville, Md.), and the MV522 cell line was obtained by Dr. M. J. Kelner of the University of California. The cells were cultured in RPMI medium (Nova Tech, Grand Island, N.Y.) at 37° C. in a humidified atmosphere containing 5% CO2. For passaging, cells grown in 75 cm^2 flasks (60–70% confluency) were washed with PBS and dislodged from the flasks with trypsin (Gibco BRL) before being passaged. Cells used for the experiments described below were centrifuged and resuspended in cell culture medium at a concentration of 10^5 cells/mL. A 100 microliter aliquot (ten thousand cells) was plated into each well of a 96-well microtiter plate.
(§3) Docetaxel (Taxotere™, Aventis Pharmaceuticals, Inc.) solubilized in 100% DMSO and diluted 1000×to the desired concentration (0.1% DMSO final concentration), was used as a positive control. […] Exponentially growing cells in 100 microliters of cell culture medium were plated on Day 0 in 96-well microtiter plates at a concentration of 10^4 cells/well. On Day 1, drugs were added to each well of the microtiter plate with the designated concentration in 100 microliter aliquots of cell culture medium and incubated at 37° C. in a humidified incubator (5% CO2/95% HEPA filtered air). After three days of treatment, adherent cells were fixed by adding 50 microliters of cold 50% trichloracetic acid to each well and incubating for one hour at 4° C. The supernatant was discarded, and plates were washed twice with de-ionized water and air-dried. One hundred microliters of SRB solution were added to each well of the plate and incubated ten minutes at room temperature. Unbound SRB stain was removed by washing twice with 1% acetic acid. The bound SRB stain was solubilized with 10 mM Tris buffer, and the optical densities read at a single wavelength of 515 nm.
(§4) IC50 values (50% effective dose) were calculated from two different experiments, each of which involved 6 replicates for each dose tested. […]

Another data set relates to NCI-H23 cells. Put plainly: Sulforhodamine B (SRB) growth inhibition assay. Type of data set: cell-based. Conditions: Homo sapiens, 72 hours treatment. How it is done: as §2, §3, §4
A further data set concerns H2347 cells. Put plainly: Inhibition of proliferation of Taxol-resistant cell line. As to conditions: Homo sapiens, NCI-H2347. The data set is classed as cell-based.
For another data set, the system named is MV522 xenograft. Put plainly: 2-DG/Paclitaxel dosing study in mouse MV522 xenograft model. The data set is classed as in vivo. As to conditions: paclitaxel i.p.
Data set [4] relates to human non-small cell lung cancer (NSCLC) tumor cell lines. As to the kind of experiment: Proliferation with simultaneous 2-DG and Taxol treatment. Conditions: 200 nM Taxol alone, one test. The data set is classed as cell-based.
Data set [5] deals with MV522 non-small cell lung cancer (NSCLC) xenograft. As to the kind of experiment: Third efficacy study, paclitaxel alone or with oral 2-DG, tumor growth delay (TH-PT-003). The data set is classed as in vivo, nude mice. As to conditions: paclitaxel alone 10 mg/kg/dose i.p. days 6–10. How it is done:
An increase in efficacy was defined as a significant (P<0.05) increase in the time for the tumor to grow to 1000 mg (tumor growth delay—TGD) compared to vehicle alone or, for combination treatment groups, chemotherapy alone, as calculated using a two-tailed t-test. Female nude mice, ten per treatment arm, were implanted subcutaneously (s.c.) with trocar fragments of MV522 tumors harvested from s.c. tumors growing in nude mice hosts. Body weights and tumor measurements were taken biweekly. When tumors reached ˜70 mg, treatment was started. Mice were sacrificed when their individual tumor reached ˜1000 mg. All doses are reported as mg/kg/dose. […] The mice were then dosed i.p. with 10 mg/kg/dose paclitaxel once a day on days 6–10. […] Dosing with paclitaxel began when the tumors were approximately 200 mg.

Data set [6] deals with H460, H23, H522 and H661 cells. As to the kind of experiment: Inhibition of proliferation of NSCLC tumor cell lines. The data set is classed as cell-based. Conditions: most human NSCLC tumor cell lines.

Consider `O=c1[nH]cc(F)c(=O)[nH]1` [5-FU, 5-fluoro-2,4(1H,3H)-pyrimidinedione, reference compound], for which the IC50 – broadly, the concentration at which inhibition is half-maximal – in [1] came out at 2.58 µg/mL; in the data set with HT-29 colon carcinoma, 1.9 µg/mL.

Consider `N.N.[Cl][Pt][Cl]` [cisplatin, cis-Diaminedichloroplatinum (II)], for which the “TGD (tumor growth delay)” value turned out to be 15.8 days in data set [2] (cisplatin 1 mg/kg i.p. Days 1–5) and 32.6 days in data set [2] (cisplatin 2 mg/kg i.p. Days 1–5). The “mean day of sacrifice” value in data set [2] (cisplatin single agent 1 mg/kg i.p. Days 1–5) is 42.3+/−0.9; in data set [2] (cisplatin single agent 2 mg/kg i.p. Days 1–5) it was 59.1+/−5.7. In data set [2] (high dose cisplatin group (2 mg/kg), 10 mice), the complete regressions entry was “Two mice”. Besides, the “deaths during the 21 days of the study” value in data set [3] is recorded as “No mice died”.

As for `CC(=O)O[C@@]12CO[C@@H]1C[C@H](O)[C@@]1(C)C(=O)[C@H](O)C3=C(C)[C@@H](OC(=O)[C@H](O)[C@@H](NC(=O)OC(C)(C)C)c4ccccc4)C[C@@](O)([C@@H](OC(=O)c4ccccc4)[C@H]21)C3(C)C` [Docetaxel, reference compound], the IC50 worked out at 2.11 ± 0.601 nM in the data set on MV522 cells and 1.64 ± 0.211 nM in the data set with NCI-H23 cells.

As to `CC(=O)O[C@H]1C(=O)[C@@]2(C)[C@H]([C@H](OC(=O)c3ccccc3)[C@]3(O)C[C@H](OC(=O)[C@H](O)[C@@H](NC(=O)c4ccccc4)c4ccccc4)C(C)=C1C3(C)C)[C@]1(OC(C)=O)CO[C@@H]1C[C@@H]2O` [paclitaxel], the IC50 was above 1000 nM in the data set on H2347 cells and 50 to 200 nM in data set [6]. The toxic deaths result in data set [2] (paclitaxel 16 mg/kg i.p. Days 1–5) is reported as “no toxic deaths”. The complete regression entry in data set [2] (paclitaxel 16 mg/kg i.p. Days 1–5, 10 mice) is given as “one mouse experiencing a complete regression”. The “mean day of sacrifice” value in data set [2] (paclitaxel 16 mg/kg i.p. Days 1–5, sacrifice at tumor weight 1000 mg) is listed as 56.8+/−4.3. Further, the “TGD (tumor growth delay)” value in data set [2] (paclitaxel 16 mg/kg i.p. Days 1–5, vs negative control) came to 34.4 days. Further, the “efficacy of single dose 30 mg/kg versus 5 doses at 10 mg/kg” value in the data set on MV522 xenograft is given as “more effective”. This molecule came in with an inhibition of proliferation in data set [4] of around 20%. In addition, the deaths entry in data set [5] is “One death per group”.
